# Entries after “also recorded” stand apart in the source; their conditions may differ.
# What was measured:
# [1] = system: trauma-induced heterotopic ossification; assay: Trauma-potentiated (drop-weight) heterotopic ossification model; assay type: in vivo; settings: WT mice; after three weeks; Tfr2-ECD single dose, palovarotene or ibuprofen daily
# Protocol: For systemic Tfr2-ECD treatment, WT mice were treated every other day with Tfr2-ECD intraperitoneally for two weeks. Mice received 250 μg Tfr2-ECD (10 mg/kg BW) per injection for the first 10 days after BMP-2/matrigel injection into the muscle and 125 μg per injection (5 mg/kg BW) for the remaining time. This experiment was performed once with 8-10 mice per group. Drop-weight HO: This experiment was performed according to Liu et al. with minor modifications^65. Female 10-12-week-old WT mice were anesthetized and placed on a ridge of a plastic container over which the right leg was bent so the femur was lying horizontally. Mice received an injection of 1 μg BMP-2 mixed in 50 μl matrigel. Afterwards, a stainless-steel ball of 16 g (16 mm diameter) was dropped from a distance of 80 cm height onto the quadriceps muscle. Mice either received a single dose of 1 μg Tfr2-ECD, which was co-injected with the BMP-2/matrigel mixture, or palovarotene (Hycultec), which was administered daily by oral gavage. Palovarotene was dissolved in DMSO and diluted 1:4 with corn oil. Mice received palovarotene at a dose of 100 μg/mouse for the first five days and 50 μg/mouse for the remainder of the experiment (days 621). One group of mice received ibuprofen via the drinking water at a dose of […] which was changed every other day^66. […]
# Tfr2-ECD = molecular target: T1, Tfr2-ECD (Mus musculus, UniProt Q9JKX3); assay: SPR binding of holo-Tf and BMP receptors to Tfr2-ECD immobilized on the sensor chip; parameters: species or system murine; settings: 200 nM BMP receptors; binding level normalized to molecular weight
# T1 construct: full-length extracellular domain (ECD, aa 103-798) of murine Tfr2; His (N); MBP (N); c3 (protease site between MBP and ECD) (N); made in house; host or cells: Sf9 insect cells (baculovirus, pOCC211-Tfr2-ECD)
# T1 sequence (Q9JKX3 103-798): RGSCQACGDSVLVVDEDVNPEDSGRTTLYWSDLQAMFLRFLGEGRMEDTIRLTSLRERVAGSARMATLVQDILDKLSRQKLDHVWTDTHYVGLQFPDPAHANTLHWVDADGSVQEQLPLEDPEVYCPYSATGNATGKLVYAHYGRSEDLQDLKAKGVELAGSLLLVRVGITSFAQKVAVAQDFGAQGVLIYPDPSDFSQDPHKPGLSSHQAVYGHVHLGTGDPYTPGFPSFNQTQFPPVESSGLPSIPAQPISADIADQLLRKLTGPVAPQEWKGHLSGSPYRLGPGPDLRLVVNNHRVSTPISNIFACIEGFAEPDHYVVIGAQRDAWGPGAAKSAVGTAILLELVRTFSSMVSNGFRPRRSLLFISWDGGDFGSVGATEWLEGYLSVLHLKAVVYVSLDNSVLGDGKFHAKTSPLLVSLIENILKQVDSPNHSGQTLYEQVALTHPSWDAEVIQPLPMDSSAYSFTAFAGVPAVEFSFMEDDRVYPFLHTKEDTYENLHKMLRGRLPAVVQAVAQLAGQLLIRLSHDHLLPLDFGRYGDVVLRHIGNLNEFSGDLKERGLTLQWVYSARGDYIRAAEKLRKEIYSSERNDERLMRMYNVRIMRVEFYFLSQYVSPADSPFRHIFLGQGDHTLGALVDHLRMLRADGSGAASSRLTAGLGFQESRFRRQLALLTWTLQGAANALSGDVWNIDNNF
# Protocol: For this purpose, Tfr2-ECD is immobilized on a Series S Sensor Chip C1 (GE Healthcare), by means of coupling the amino groups at 25° C. The carboxyl groups on the chip surface are activated for 7 minutes using a mixture of 196 mM 1-ethyl-3-(3-dimethylaminopropyl) carbodiimide-hydrochloride and 50 mM n-hydroxysuccinimide at a flow rate of 10 μl/min. Subsequently, 5 μg/ml Tfr2-ECD, diluted with sodium acetate buffer (pH 4.5), is injected at a flow rate of 5 μl/min up to a relative occupancy of 200 RU. Non-reacted groups are inactivated by injecting 1 M thanolamine-HCl (pH 8.5) for 7 minutes at a flow rate of 10 μl/min. In order to prepare a reference surface, the same procedure is carried out but without Tfr2-ECD being injected.
# The binding assays are carried out at 37° C. at a flow rate of 30 μl/min. Each analyte is diluted by a running buffer (HBS-P, pH 7.4 together with 50 nM FeCl3). […] The values of the binding level are read out, relative to the baseline, 10 s before the end of the injection and are corrected with respect to the molar mass. […] The binding parameters are determined using the Biacore™ T100 evaluation software 2.03. […]
# For binding analysis, an injection of analyte for 240 s or 300 s over a Tfr2-ECD surface was followed by 1000 s dissociation. The values of the binding levels were recorded from referenced signals 10 s before the end of injection relative to baseline response. […]
# [2] = system: BMP-2-induced heterotopic ossification; assay: BMP-2-induced heterotopic ossification (HO) mouse model; assay type: in vivo, mice; settings: WT mice; day 8; systemic treatment; Safranin O staining
# Protocol: Male and female C57BL/6 mice are used for the HO model. The HO is triggered by injecting BMP-2 into the muscle (Wosczyna et al. 2012).
# All the mice are fed with standard feed and water ad libitum and are kept in groups of five mice per cage. The mice are exposed to a 12-hour light/dark cycle and air cooling to 23° C. (no special pathogen-free room). Enrichment is provided in the form of cardboard houses and bedding material. The mice are randomly divided into the different treatment groups and the assays are subsequently carried out as blind experiments.
# The HO is examined by means of treatment using 2.5 μl of a 1 mg/ml recombinant BMP-2 solution (Thermo Fisher Scientific) or 2.5 μl of a 1 mg/ml Tfr2-ECD mixed with 47.5 μl Matrigel (BD Bioscience) at 0° C. For combination treatment, 2.5 of a 1 mg/ml recombinant BMP-2 solution is mixed with 2.5 μl of a 1 mg/ml Tfr2-ECD and 45 μl Matrigel. The Matrigel mixtures are injected into the musculus tibialis anterior of 10-week-old female wild-type mice. The legs are examined after two weeks.
# The bone microarchitecture is analyzed using vivaCT40 (Scanco Medical, Switzerland). The entire lower leg bones are measured at a resolution of 10.5 μm using X-rays of 70 kVp, […] and at an integration time of 200 s. Predefined scripts from Scanco are used to analyze the bone (#1). […]
Binding response of BMPRs to Tfr2-ECD compared with BMPs (Tfr2-ECD),Molecule,"New bone formation in the muscle (trauma-induced HO, μCT) [1]",Number of chondrocytes (chondrogenic phase of HO) [2],Production of cartilage (chondrogenic phase of HO) [2]
,CC(C)Cc1ccc(C(C)C(=O)O)cc1 (centres unmarked) [ibuprofen],did not prevent; also recorded: did not significantly reduce,,
weaker than BMPs,"BMPR-IA: BMP receptor type IA (R&D Systems), positive control in the BMP-2 ELISA",,,
,"CC1(C)CCC(C)(C)c2cc(Cn3cccn3)c(/C=C/c3ccc(C(=O)O)cc3)cc21 [palovarotene, reference compound]",comparable,suppressed,suppressed
